# Earlier results as cited in patent publication US9006268B2, “Prolylcarboxypeptidase inhibitors” (Merck Sharp & Dohme Corp., priority 2010, dated 2015).
# Experiments:
# [1] = literature studies of weight loss medications
# [2] = test system: obese, leptin deficient mice; details: systemic administration to obese
# rats = details: intracerebroventricular administration to rats
molecule,measurement,setting,value
CCN[C@@H](C)Cc1cccc(C(F)(F)F)c1 [dexfenfluramine],weight loss of body weight for drug compared to placebo,[1],5%-10%
CCCCCCCCCCC[C@@H](C[C@@H]1OC(=O)[C@H]1CCCCCC)OC(=O)[C@H](CC(C)C)NC=O [orlistat],weight loss of body weight for drug compared to placebo,[1],5%-10%
CC(C)(N)Cc1ccccc1 [phentermine],weight loss of body weight for drug compared to placebo,[1],5%-10%
CC(C)CC(N(C)C)C1(c2ccc(Cl)cc2)CCC1 (stereo not drawn) [sibutramine],weight loss of body weight for drug compared to placebo,[1],5%-10%
t-butyl carbamate-prolyl prolinal [BPP],overnight food intake,[2],suppression of overnight food intake
same,overnight food intake,rats,suppression of overnight food intake
